Columns and labels:
A-549 = assay: cytotoxicity against A-549; assay type: cell-based; conditions: Homo sapiens, A549
Protocol: (§1) The cytotoxicity of the compounds of scheme 4 of this invention is illustrated by the following IC50 μM data: […]

P-388 = assay: cytotoxicity against P-388; assay type: cell-based; conditions: Mus musculus, P388
Protocol: as §1

HT-29 = assay: cytotoxicity against HT-29; assay type: cell-based; conditions: Homo sapiens
Protocol: as §1

Sacharomyces cerevisiae = conditions: cited from earlier work
HCT 116 cell line = conditions: cited from earlier work
P388 cell line = conditions: Tetrahedron 1994, 50, 3987-3992; cited from earlier work
[1] = cited from earlier work
other microorganisms = conditions: cited from earlier work
Herpes simplex = conditions: cited from earlier work

Row | SMILES | IC50 (A-549) [nM] | IC50 (P-388) [nM] | IC50 (HT-29) [nM] | other results
1 | Nc1nccc(-c2c3cccnc3n3c(N)nccc23)n1 [Compound 5, 9-Amino-5-(2-aminopyrimidin-4-yl)pyrido[3′,2′:4,5]pyrrolo[1,2-c]-pyrimidine] | 40 | 360 | 40 | 
2 | CSc1nccc(-c2c3cccnc3n3c(NC(C)=O)nccc23)n1 [Compound 20a, 9-Acetylamino-5-(2-methanesulfanylpyrimidin-4-yl)pyrido[3′,2′:4,5]-pyrrolo-[1,2-c]pyrimidine] | 290 | > 3000 | 290 | 
3 | CSc1nccc(-c2c3cccnc3n3c(N)nccc23)n1 [Compound 21, 9-Amino-5-(2-methanesulfanylpyrimidin-4-yl)pyrido[3′,2′:4,5]pyrrolo[1,2-c]pyrimidine] | 160 | > 3000 | 160 | 
4 | CN1C(N)=NCCC1c1c2c(O)ccnc2n2c(N)nccc12 (stereo not shown) [N(3′)-methyltetrahydrovariolin B, N (3′)-methyl tetrahydrovariolin B] |  |  |  | growth of Sacharomyces cerevisiae (Sacharomyces cerevisiae): inhibited the growth; in vitro activity against the HCT 116 cell line (HCT 116 cell line): in vitro activity
5 | C[n+]1c([O-])cc(-c2c3c(O)ccnc3n3c(N)nccc23)nc1N [Variolin A] |  |  |  | cytotoxic activity against the P388 cell line (P388 cell line): important cytotoxic activity
6 | COC(=O)c1c2c(O)ccnc2n2c(N)nccc12 [Variolin D, variolin D] |  |  |  | activity in all the assays [1]: inactive
7 | Nc1nccc(-c2c3c(O)ccnc3n3c(N)nccc23)n1 [variolin B] | 170 | 850 | 90 | activity against a range of other microorganisms (other microorganisms): inactive; effectiveness against Herpes simplex (Herpes simplex): effective; cytotoxic activity against the P388 cell line (P388 cell line): cytotoxic activity
